The record followed here is ChEMBL document CHEMBL5608113, “Targeting of CAF-induced therapy resistance in CRC organoid-stroma co-cultures” (2024).

Common to all, as to format: functional, Homo sapiens
Holding throughout (details): Homo sapiens, read-out: Cell Viability; for viability at 10 µM: Concentration 10 uM; for viability at 1 µM: Concentration 1 uM

Experiment [1] relates to Colon cancer organoid. Description: Targeting of F14 CAF-induced therapy resistance in O14 CRC organoid-stroma co-culture. Cell viability is reported without Gefitinib.
Experiment [2] deals with Colon cancer organoid. The experiment is described as follows: Targeting of F14 CAF-induced therapy resistance in O14 CRC organoid-stroma co-culture. Cell viability is reported with Gefitinib.
The test system of experiment [3] is Colon cancer organoid. Description: Targeting of F14 CAF-induced therapy resistance in O23 CRC organoid-stroma co-culture. Cell viability is reported without Gefitinib.
For experiment [4], the system named is Colon cancer organoid. Description: Targeting of F14 CAF-induced therapy resistance in O23 CRC organoid-stroma co-culture. Cell viability is reported with Gefitinib.
Experiment [5] has as its system Colon cancer organoid. The experiment is described as follows: Targeting of F14 CAF-induced therapy resistance in O23 CRC organoid-stroma co-culture. Cell viability is reported with SN-38.

In general, viability refers to a read-out of living cells in per cent, often relative to untreated cells.

As for `Cn1c(=O)[nH]c2cc(N3C(=O)c4cccc5c(CCCO)ccc(c45)C3=O)ccc21`, the viability at 10 µM in experiment [1] came to 92.6%; in experiment [2], 42.4%; in experiment [3], 132%; in experiment [4], 52.8%; in experiment [5], 69.9%.

Regarding `CC1(C)C(N)=Nc2cc(OCCCN3Cc4ccc(OCCc5cn(CC(=O)N6CCC(CCN7CCCC7)CC6)nn5)cc4C3)c(OCC3CC3)cc21`, the viability at 10 µM in experiment [1] turned out to be 111%; in experiment [2], 68.9%; in experiment [3] it was 11.8%; in experiment [4], 9.03%; in experiment [5], 7.1%.

For `CC1(C)C(N)=Nc2cc(OCCCCN3Cc4ccc(OCc5cn(CC(=O)N6CCC(CCN7CCCC7)CC6)nn5)cc4C3)c(OCC3CC3)cc21`, the viability at 10 µM in experiment [1] worked out at 107%; in experiment [2], 45.4%; in experiment [3] it was 86.3%; in experiment [4] it was 44%; in experiment [5], 78.3%.

Take `COc1ccccc1-c1cc(N2CCN(C(=O)OC(C)(C)C)CC2)c(N)nn1`: the viability at 10 µM in experiment [1] came out at 101%; in experiment [2], 53.4%; in experiment [3], 49.4%; in experiment [4] it was 37.8%; in experiment [5], 35.8%.

With `CC1=CC(C)=[N+]2C1=C(CCCCc1cn(CC(=O)N3CCc4nc(NC(=O)[C@H]5CCN(C#N)C5)sc4C3)nn1)c1c(C)cc(C)n1[B-]2(F)F`, the viability at 10 µM turned out to be 115% in experiment [1]; 31.6% in experiment [2]; 101% in experiment [3]; 36.4% in experiment [4]; 52.6% in experiment [5].

In the case of `COc1cc(OC)cc(-c2noc(N3CCN(C)C4(CCN(c5ccccc5)CC4)C3)n2)c1`, the viability at 10 µM is 114% in experiment [1]; 46.8% in experiment [2]; 104% in experiment [3]; 65.9% in experiment [4]; 81.3% in experiment [5].

On to `N#CN1CC[C@H](C(=O)Nc2nc3c(s2)CN(C(=O)CN=[N+]=[N-])CC3)C1` [8RK64], for which the viability at 10 µM in experiment [1] worked out at 105%; in experiment [2], 33.4%; in experiment [3], 108%; in experiment [4] it was 43.1%; in experiment [5] it was 40.9%.

As for `CN(C)[C@@H]1CCN(c2cc(-c3ccccc3)nc3ccnn23)C1` [(R)-ZINC-3573], the viability at 10 µM came out at 68.2% in experiment [1]; 30.9% in experiment [2]; 130% in experiment [3]; 61.7% in experiment [4]; 70.6% in experiment [5].

Turning to `CN(C)[C@H]1CCN(c2cc(-c3ccccc3)nc3ccnn23)C1` [(S)-ZINC-3573], the viability at 10 µM in experiment [1] amounted to 68.9%; in experiment [2], 33.4%; in experiment [3] it was 98.9%; in experiment [4] it was 55.6%; in experiment [5], 49.3%.

As to `Cn1cncc1[C@@](O)(COc1ccc(C#N)cc1-c1ccc(OC(F)(F)F)cc1)c1ccc(C#N)cc1` [A-108], the viability at 10 µM stood at 108% in experiment [1]; 47.8% in experiment [2]; 131% in experiment [3]; 69.3% in experiment [4]; 112% in experiment [5].

In the case of `CCC(=N\O)/C(C)=C/c1ccc(F)c(C)c1` [A-226], the viability at 10 µM came out at 119% in experiment [1]; 62.5% in experiment [2]; 97.1% in experiment [3]; 49.8% in experiment [4]; 93.1% in experiment [5].

`CNC(=O)Nc1ccc2c(c1)CC[C@@]21OC(=O)N(CC(=O)N(Cc2ccc(F)cc2)[C@@H](C)C(F)(F)F)C1=O` [A-485]: the viability at 1 µM amounted to 65.4% in experiment [1]; 23.9% in experiment [2]; 60.4% in experiment [3]; 34.6% in experiment [4]; 51% in experiment [5].

Regarding `CNC(=O)Nc1ccc2c(c1)[C@@]1(CC2)OC(=O)N(CC(=O)N(Cc2ccc(F)cc2)[C@@H](C)C(F)(F)F)C1=O` [A-486], the viability at 1 µM in experiment [1] came out at 90.8%; in experiment [2], 50%; in experiment [3] it was 92.2%; in experiment [4], 47.9%; in experiment [5], 69.7%.

For `CCCCN(CCCC)C(=O)CN1C[C@@H](c2cc(OC)c3c(c2)OCO3)[C@H](C(=O)O)[C@H]1CC(C)(C)CCC` [A-545], the viability at 10 µM in experiment [1] worked out at 83.6%; in experiment [2], 61.5%; in experiment [3] it was 142%; in experiment [4], 47%; in experiment [5], 88.5%.

As to `CSc1cccnc1N1CCN(Cc2nc3ccccc3[nH]2)CC1` [A-769], the viability at 10 µM in experiment [1] was found to be 73.4%; in experiment [2], 36.4%; in experiment [3], 111%; in experiment [4] it was 59%; in experiment [5] it was 103%.

Take `CCCOc1ccc([C@H]2[C@H](C(=O)O)[C@@H](c3ccc4c(c3)OCO4)CN2CC(=O)Nc2c(CC)cccc2CC)cc1` [A-192621]: the viability at 1 µM in experiment [1] turned out to be 117%; in experiment [2], 27.4%; in experiment [3], 112%; in experiment [4], 48.1%; in experiment [5], 50%.

In the case of `CN(C)CC#Cc1ccc(OCCCc2sc(N3CCc4cccc(C(=O)Nc5nc6ccccc6s5)c4C3)nc2C(=O)O)c(F)c1` [A-1155463], the viability at 10 µM in experiment [1] was 61.6%; in experiment [2] it was 21.1%; in experiment [3], 5.72%; in experiment [4], 2.66%; in experiment [5] it was 0.449%.

On to `CO[C@H]1CC[C@H](CNc2ccc(S(=O)(=O)NC(=O)c3ccc(N4CCN(CC5=C(c6ccc(Cl)cc6)CC(C)(C)CC5)CC4)cc3Oc3cnc4[nH]ccc4c3)cc2[N+](=O)[O-])CC1` [A-1211212], for which the viability at 10 µM came to 40.4% in experiment [1]; 25% in experiment [2]; 83.3% in experiment [3]; 30.6% in experiment [4]; 32.3% in experiment [5].

`COc1ccc2c(c1)O[C@H](c1ccc(OC)c(OC)c1)C[C@@H]2NC(=O)C1(c2ccc3c(c2)OC(F)(F)O3)CC1` [A-1596584]: the viability at 10 µM stood at 74.5% in experiment [1]; 48.4% in experiment [2]; 111% in experiment [3]; 48.5% in experiment [4]; 59.1% in experiment [5].

For `COc1ccc2c(c1)O[C@@H](c1ccc(OC)c(OC)c1)C[C@H]2NC(=O)C1(c2ccc3c(c2)OC(F)(F)O3)CC1` [A-1596586], the viability at 10 µM in experiment [1] amounted to 121%; in experiment [2], 44.6%; in experiment [3] it was 129%; in experiment [4], 42.2%; in experiment [5], 51.3%.

Regarding `CCCOc1ccc([C@@H]2[C@@H](C(=O)O)[C@H](c3ccc4c(c3)OCO4)CN2CC(=O)Nc2c(CC)cccc2CC)cc1` [A-1806262], the viability at 1 µM in experiment [1] amounted to 79.9%; in experiment [2], 47.8%; in experiment [3], 85%; in experiment [4], 38.9%; in experiment [5] it was 54.5%.

Consider `CCNC(=O)c1cc2c(-c3cc(C(C)(C)O)ccc3Oc3c(C)cc(F)cc3C)cn(C)c(=O)c2[nH]1` [ABBV-744], for which the viability at 10 µM in experiment [1] worked out at 78.2%; in experiment [2] it was 14.3%; in experiment [3] it was 135%; in experiment [4], 82%; in experiment [5], 75.1%.

In the case of `COc1cc(Nc2ncc3c(n2)-c2ccc(Cl)cc2C(c2c(F)cccc2OC)=NC3)ccc1C(=O)O` [ALISERTIB], the viability at 10 µM in experiment [1] is 16.2%; in experiment [2] it was 7.3%; in experiment [3] it was 32.9%; in experiment [4], 13.7%; in experiment [5] it was 46.6%.

Take `CC(C)[C@H](C(=O)Nc1ccc(C(=O)NO)cc1)c1ccccc1` [AR-42]: the viability at 10 µM in experiment [1] stood at 34.5%; in experiment [2] it was 23.6%; in experiment [3], 210%; in experiment [4], 263%; in experiment [5], 131%.

`Cc1cnc(-c2cc(Cl)ccc2F)cc1-n1c(=O)n(CC(N)=O)c2ccccc21` [Al11]: the viability at 10 µM in experiment [1] was 104%; in experiment [2], 31.3%; in experiment [3], 120%; in experiment [4] it was 94.6%; in experiment [5], 66.2%.

As to `Cc1ccccc1Oc1cc(-n2c(=O)cc(C(F)(F)F)[nH]c2=O)c2ccccc2c1Cl` [BAY-069], the viability at 10 µM in experiment [1] came to 167%; in experiment [2], 40.6%; in experiment [3], 116%; in experiment [4], 56.6%; in experiment [5], 51.3%.

Turning to `Cn1c(-c2csc(C3CCN(CC4=NC5N=CC=CC5N4)CC3)n2)nc2ccccc21` (stereo not given) [BAY-070], the viability at 10 µM was 90.7% in experiment [1]; 44.6% in experiment [2]; 136% in experiment [3]; 73.4% in experiment [4]; 105% in experiment [5].

`NS(=O)(=O)c1cc(NC(=O)C2(c3ccccc3Cl)CC2)ccc1Oc1cccc(Cl)c1` [BAY-207]: the viability at 10 µM in experiment [1] was determined as 86.8%; in experiment [2], 34.8%; in experiment [3], 78.6%; in experiment [4], 42.5%; in experiment [5], 61%.

Consider `CNCc1ccccc1-c1csc([C@@H](C)Nc2nc(C)nc3cc(OC)c(OC)cc23)c1` [BAY-293], for which the viability at 10 µM in experiment [1] is 64%; in experiment [2], 16.6%; in experiment [3], 69.8%; in experiment [4], 35%; in experiment [5], 50.2%.
